According to patent US20250361230A1, “LATS Inhibitors and Uses Thereof” (The USA, as Represented by the Secretary, Dept. of Heath …, priority 2022, published 2025):
Where two headings read alike, the source gives them in different places.

Columns and labels:
Type in all cases: biochemical
[1] = target: T1, LATS2 (Homo sapiens, UniProt Q9NRM7); assay: RBC HotSpot kinase assay (33P-ATP, P81 filter-binding), LATS2; details: read-out: LATS2 IC50
T1 sequence (Q9NRM7 1-1088): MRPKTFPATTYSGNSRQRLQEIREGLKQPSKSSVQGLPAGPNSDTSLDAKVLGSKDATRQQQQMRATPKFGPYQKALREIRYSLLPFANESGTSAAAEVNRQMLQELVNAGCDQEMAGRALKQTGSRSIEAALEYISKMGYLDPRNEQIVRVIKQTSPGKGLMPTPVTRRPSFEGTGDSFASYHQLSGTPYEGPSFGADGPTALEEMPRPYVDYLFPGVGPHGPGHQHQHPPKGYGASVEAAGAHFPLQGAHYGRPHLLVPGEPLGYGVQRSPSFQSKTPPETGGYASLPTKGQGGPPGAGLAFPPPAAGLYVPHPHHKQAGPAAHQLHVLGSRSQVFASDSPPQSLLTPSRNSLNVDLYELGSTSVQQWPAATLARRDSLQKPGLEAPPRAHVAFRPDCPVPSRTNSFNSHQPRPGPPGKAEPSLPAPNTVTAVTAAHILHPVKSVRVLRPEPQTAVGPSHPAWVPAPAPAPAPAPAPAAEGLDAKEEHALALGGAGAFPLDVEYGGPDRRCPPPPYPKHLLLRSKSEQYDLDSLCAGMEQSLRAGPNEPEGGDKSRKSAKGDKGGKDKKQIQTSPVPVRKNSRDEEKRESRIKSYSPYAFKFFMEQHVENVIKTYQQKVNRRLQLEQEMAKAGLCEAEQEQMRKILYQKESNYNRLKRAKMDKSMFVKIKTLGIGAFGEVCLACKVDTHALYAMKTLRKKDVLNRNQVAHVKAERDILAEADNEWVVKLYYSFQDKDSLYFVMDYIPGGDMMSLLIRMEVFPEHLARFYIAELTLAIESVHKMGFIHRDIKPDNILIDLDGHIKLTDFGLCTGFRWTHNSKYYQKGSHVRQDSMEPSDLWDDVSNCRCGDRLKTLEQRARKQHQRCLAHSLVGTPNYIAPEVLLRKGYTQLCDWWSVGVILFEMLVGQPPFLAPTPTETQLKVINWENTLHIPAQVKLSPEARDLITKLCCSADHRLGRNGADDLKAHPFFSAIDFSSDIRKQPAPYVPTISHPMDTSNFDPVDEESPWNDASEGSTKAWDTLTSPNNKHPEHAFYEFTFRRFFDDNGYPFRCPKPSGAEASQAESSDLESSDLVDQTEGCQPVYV
Protocol: (§1) Biochemical kinase inhibitory data was obtained for various exemplary compounds prepared according to the above.
(§2) The reagents used are as follows: Base Reaction buffer; 20 mM Hepes (pH 7.5), 10 mM MgCl2, 1 mM EGTA, 0.01% Brij35, 0.02 mg/ml BSA, 0.1 mM Na3VO4, 2 mM DTT, […]. Required cofactors were added individually to each kinase reaction.
(§3) The reaction procedure was as follows: • 1) Substrates were prepared in freshly prepared Reaction Buffer. • 2) Any required cofactors were delivered to the substrate solution above. • 3) Kinase was delivered into the substrate solution and gently mixed. • 4) Compounds were delivered in 100% DMSO into the kinase reaction mixture by Acoustic technology (Echo550; nanoliter range), followed by incubation for 20 min at room temp. • 5) ^33P-ATP was delivered into the reaction mixture to initiate the reaction. • 6) The mixture was incubated for 2 hours at room temperature. • 7) Kinase activity was detected by P81 filter-binding method.
(§4) Using the above functional assay, the inhibitory activity of the compounds for LATS1/2 versus AKT was characterized. The assays were typically run in a 10-point curve, in singlet, to produce a titration curve from which an IC50 value was obtained.
(§5) The reagents used are as follows: Base Reaction buffer; 20 mM Hepes (pH 7.5), 10 mM MgCl2, 1 mM EGTA, 0.01% Brij35, 0.02 mg/ml BSA, 0.1 mM Na3VO4, 2 mM DTT, 1% DMSO. Required cofactors were added individually to each kinase reaction.
(§6) Biochemical kinase inhibitory data was obtained for various exemplary compounds prepared according to the above in accordance with the protocols described in Examples 4 and 8. All biological activities are IC50, in nM.

[2] = target: T2, LATS1 (Homo sapiens, UniProt O95835); assay: RBC HotSpot kinase assay (33P-ATP, P81 filter-binding), LATS1; details: read-out: LATS1 IC50
T2 sequence (O95835 1-1130): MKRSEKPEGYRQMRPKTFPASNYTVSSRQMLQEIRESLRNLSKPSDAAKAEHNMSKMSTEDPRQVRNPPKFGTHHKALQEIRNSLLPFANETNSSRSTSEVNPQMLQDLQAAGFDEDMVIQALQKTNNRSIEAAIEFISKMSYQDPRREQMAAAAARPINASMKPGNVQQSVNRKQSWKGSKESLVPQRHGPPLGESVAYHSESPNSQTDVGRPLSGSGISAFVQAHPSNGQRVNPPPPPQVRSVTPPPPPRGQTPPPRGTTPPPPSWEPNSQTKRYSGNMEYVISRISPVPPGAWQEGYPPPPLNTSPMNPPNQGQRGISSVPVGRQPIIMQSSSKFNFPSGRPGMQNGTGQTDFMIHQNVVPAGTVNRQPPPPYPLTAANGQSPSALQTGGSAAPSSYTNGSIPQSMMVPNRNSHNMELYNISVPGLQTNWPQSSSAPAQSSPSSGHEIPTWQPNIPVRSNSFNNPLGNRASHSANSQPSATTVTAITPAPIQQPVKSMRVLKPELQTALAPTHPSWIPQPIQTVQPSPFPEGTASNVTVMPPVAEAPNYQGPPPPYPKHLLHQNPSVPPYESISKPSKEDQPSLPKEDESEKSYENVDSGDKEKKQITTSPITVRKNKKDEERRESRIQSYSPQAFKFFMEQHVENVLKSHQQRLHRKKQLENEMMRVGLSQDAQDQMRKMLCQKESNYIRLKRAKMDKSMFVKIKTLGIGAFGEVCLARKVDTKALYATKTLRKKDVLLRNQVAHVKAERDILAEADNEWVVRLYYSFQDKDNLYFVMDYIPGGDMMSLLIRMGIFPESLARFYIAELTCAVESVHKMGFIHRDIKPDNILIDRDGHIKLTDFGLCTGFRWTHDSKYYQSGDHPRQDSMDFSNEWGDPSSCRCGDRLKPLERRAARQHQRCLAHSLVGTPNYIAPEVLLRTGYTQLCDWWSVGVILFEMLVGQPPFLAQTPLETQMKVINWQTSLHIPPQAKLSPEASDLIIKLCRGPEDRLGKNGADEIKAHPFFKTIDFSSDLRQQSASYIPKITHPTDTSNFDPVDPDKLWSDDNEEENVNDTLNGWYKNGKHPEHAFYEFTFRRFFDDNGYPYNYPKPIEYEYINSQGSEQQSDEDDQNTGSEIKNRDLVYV
Protocol: as §1, §2, §3, §4, §5, §6

[3] = target: AKT (Homo sapiens, UniProt P31749); assay: RBC HotSpot kinase assay (33P-ATP, P81 filter-binding), AKT; details: read-out: AKT IC50
Sequence of AKT (P31749 whole entry): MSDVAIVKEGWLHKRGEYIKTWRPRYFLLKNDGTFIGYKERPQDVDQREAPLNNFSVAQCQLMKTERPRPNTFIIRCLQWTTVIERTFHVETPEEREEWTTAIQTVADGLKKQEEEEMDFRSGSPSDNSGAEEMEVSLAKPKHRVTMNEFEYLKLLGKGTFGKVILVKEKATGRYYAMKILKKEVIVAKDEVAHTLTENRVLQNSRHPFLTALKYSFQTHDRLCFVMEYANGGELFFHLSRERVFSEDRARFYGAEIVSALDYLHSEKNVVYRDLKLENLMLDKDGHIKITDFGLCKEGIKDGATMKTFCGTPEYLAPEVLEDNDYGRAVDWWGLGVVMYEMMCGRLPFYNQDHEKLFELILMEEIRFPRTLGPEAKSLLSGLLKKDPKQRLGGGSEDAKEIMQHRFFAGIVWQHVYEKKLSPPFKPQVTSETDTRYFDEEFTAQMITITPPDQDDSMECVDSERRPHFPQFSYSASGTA
Protocol: as §1, §2, §3, §4, §5, §6

[4] = Table 28, biochemical kinase assay

For `CC(C)(N)c1ccc(-c2ccnc3[nH]ccc23)cc1-c1ccccc1` [Compound 206, 2-(5-(1H-pyrrolo[2,3-b]pyridin-4-yl)-[1,1′-biphenyl]-2-yl)propan-2-amine], the IC50 [1, 4] was 74.9 nM, the IC50 [2, 4] was 10.2 nM and the IC50 [3, 4] was 1620 nM.
`CCc1cc(-c2ccnc3[nH]cc(F)c23)ccc1[C@@]1(O)[C@H](C)CN(C2CCS(=O)(=O)CC2)C[C@@H]1C` [Compound 306, 4-((3S,4s,5R)-4-(2-ethyl-4-(3-fluoro-1H-pyrrolo[2,3-b]pyridin-4-yl)phenyl)-4-hydroxy-3,5-dimethylpiperidin-1-yl)tetrahydro-2H-thiopyran 1,1-dioxide] showed an IC50 [1, 4] of 5.4 nM, an IC50 [2, 4] of 11.6 nM and an IC50 [3, 4] of 31.2 nM.
`Cc1cc(-c2ccnc3[nH]cc(C#N)c23)cc(F)c1[C@@]1(O)[C@H](C)CN(C(=O)C(N)C(F)F)C[C@@H]1C` (stereo partly drawn) [Compound 2019, 4-(4-((3S,4s,5R)-1-(2-amino-3,3-difluoropropanoyl)-4-hydroxy-3,5-dimethylpiperidin-4-yl)-3-fluoro-5-methylphenyl)-1H-pyrrolo[2,3-b]pyridine-3-carbonitrile] gave an IC50 ([1]; biochemical kinase inhibition) of 7 nM, an IC50 ([2]; biochemical kinase inhibition) of 7 nM and an IC50 ([3]; biochemical kinase inhibition) of 1220 nM.
In the case of `COC(=O)c1c[nH]c2nccc(-c3ccc(CN)c(C)c3)c12` [Compound 213, methyl 4-(4-(aminomethyl)-3-methylphenyl)-1H-pyrrolo[2,3-b]pyridine-3-carboxylate], the IC50 [1, 4] is reported as 14.7 nM, the IC50 [2, 4] is reported as 7.7 nM and the IC50 [3, 4] is reported as 832 nM.
Work on `NCC(=O)N1CCC(c2ccc(-c3ccnc4[nH]cc(F)c34)cc2Cl)CC1` [Compound 148, 2-amino-1-(4-(2-chloro-4-(3-fluoro-1H-pyrrolo[2,3-b]pyridin-4-yl)phenyl)piperidin-1-yl)ethan-1-one] yielded an IC50 [1, 4] of 17.8 nM, an IC50 [2, 4] of 7.7 nM and an IC50 [3, 4] of 1080 nM.
`C[C@@H]1CN(C)C[C@H](C)[C@@]1(O)c1c(F)cc(-c2ccnc3[nH]cc(F)c23)cc1F` [Compound 37, (3S,4s,5R)-4-(2,6-difluoro-4-(3-fluoro-1H-pyrrolo[2,3-b]pyridin-4-yl)phenyl)-1,3,5-trimethylpiperidin-4-ol] was tested, and the IC50 [1, 4] was 8.6 nM, the IC50 [2, 4] was 10.1 nM and the IC50 [3, 4] was 477 nM.
For `CC(C)(N)c1ccc(-c2ccnc3[nH]ccc23)cc1Cl` [Compound 205, 2-(2-chloro-4-(1H-pyrrolo[2,3-b]pyridin-4-yl)phenyl)propan-2-amine], the IC50 [1, 4] was 31.8 nM, the IC50 [2, 4] was 9.5 nM and the IC50 [3, 4] was 437 nM.
`Cc1nc(-c2ccnc3[nH]cc(F)c23)ccc1[C@@]1(O)[C@H](C)CN(C2CCC2)C[C@@H]1C` [Compound 50, (3R,4s,5S)-1-cyclobutyl-4-(6-(3-fluoro-1H-pyrrolo[2,3-b]pyridin-4-yl)-2-methylpyridin-3-yl)-3,5-dimethylpiperidin-4-ol] was tested, and the IC50 [1, 4] was 24.7 nM, the IC50 [2, 4] was 6.1 nM and the IC50 [3, 4] was 906 nM.
`Cc1cc(-c2ccnc3[nH]cc(F)c23)cc(F)c1[C@@]1(O)[C@H](C)CN(C(=O)[C@@H]2CCCN2)C[C@@H]1C` [Compound 63, 4-(4-((3S,4R,5R)-1-(L-prolyl)-4-hydroxy-3,5-dimethylpiperidin-4-yl)-3-fluoro-5-methylphenyl)-3-fluoro-1H-pyrrolo[2,3-b]pyridine] was tested, and the IC50 [1, 4] was 3.4 nM, the IC50 [2, 4] was 8.5 nM and the IC50 [3, 4] was 677 nM.
Work on `C=C(C)c1cc(-c2ccnc3[nH]ccc23)ccc1CN` [Compound 240, (2-(prop-1-en-2-yl)-4-(1H-pyrrolo[2,3-b]pyridin-4-yl)phenyl) methanamine] yielded an IC50 [1, 4] of 33.8 nM, an IC50 [2, 4] of 4.3 nM and an IC50 [3, 4] of 178 nM.
For `O=C([C@H]1CCCN1)N1CCC(c2ccc(-c3ccnc4[nH]cc(F)c34)cc2Cl)CC1` [Compound 165, (R)-4-(3-chloro-4-(1-prolylpiperidin-4-yl)phenyl)-3-fluoro-1H-pyrrolo[2,3-b]pyridine], the IC50 [1, 4] was 36.9 nM, the IC50 [2, 4] was 32.1 nM and the IC50 [3, 4] was 1510 nM.
Compound `NCc1ccc(-c2ccnc3[nH]ccc23)nc1` [Compound 218, (6-(1H-pyrrolo[2,3-b]pyridin-4-yl)pyridin-3-yl)methanamine] has an IC50 [1, 4] of 130 nM, an IC50 [2, 4] of 37 nM and an IC50 [3, 4] of 4930 nM.
